Columns and labels:
Type in all cases: in vivo
[1] = tested on: Orchid thrips (Dichromothrips corbetti); assay: Action on orchid thrips (Dichromothrips corbetti), floral-immersion technique; settings: adult thrips, mortality 72 hours after treatment, read-out: mortality in comparison with untreated controls
Method: Dichromothrips corbetti adults used for bioassay were obtained from a colony maintained continuously under laboratory conditions. For testing purposes, the test compound is diluted in a 1:1 mixture of acetone:water (vol:vol), plus Kinetic® HV at a rate of 0.01% v/v.
Thrips potency of each compound was evaluated by using a floral-immersion technique. All petals of individual, intact orchid flowers were dipped into treatment solution and allowed to dry in Petri dishes. Treated petals were placed into individual re-sealable plastic along with about 20 adult thrips. All test arenas were held under continuous light and a temperature of about 28° C. for duration of the assay. After 3 days, the numbers of live thrips were counted on each petal. The percent mortality was recorded 72 hours after treatment.

[2] = tested on: Diamond Back Moth (Plutella xylostella); assay: Action on diamond back moth (Plutella xylostella), cabbage leaf dip; settings: foliar, 3rd instar larvae on dipped cabbage leaves, 72 hours after treatment, read-out: mortality in comparison with untreated controls
Method: The active compound is dissolved at the desired concentration in a mixture of 1:1 (vol:vol) distilled water:acetone. Surfactant (Kinetic® HV) is added at a rate of 0.01% (vol/vol).The test solution is prepared at the day of use.
Leaves of cabbage were dipped in test solution and air-dried. Treated leaves were placed in petri dishes lined with moist filter paper and inoculated with ten 3rd instar larvae. Mortality was recorded 72 hours after treatment. Feeding damages were also recorded using a scale of 0-100%.

[3] = tested on: Silverleaf Whitefly (Bemisia argentifoli) (Adults); assay: Action on silverleaf whitefly (Bemisia argentifoli) adults, sprayed cotton plants; settings: Bemisia argentifolii, 72 h, 3 days after treatment, read-out: mortality in comparison with untreated controls
Method: (§1) The active compounds were formulated by a Tecan liquid handler in 100% cyclohexanone as a 10,000 ppm solution supplied in tubes. The 10,000 ppm solution was serially diluted in 100% cyclohexanone to make interim solutions. These served as stock solutions for which final dilutions were made by the Tecan in 50% acetone:50% water (v/v) into 5 or 10 ml glass vials. A nonionic surfactant (Kinetic®) was included in the solution at a volume of 0.01% (v/v). The vials were then inserted into an automated electrostatic sprayer equipped with an atomizing nozzle for application to plants/insects.
Cotton plants at the cotyledon stage (one plant per pot) were sprayed by an automated electrostatic plant sprayer equipped with an atomizing spray nozzle. The plants were dried in the sprayer fume hood and then removed from the sprayer. Each pot was placed into a plastic cup and about 10 to 12 whitefly adults (approximately 3-5 days old) were introduced. The insects were collected using an aspirator and a nontoxic Tygon® tubing connected to a barrier pipette tip. The tip, containing the collected insects, was then gently inserted into the soil containing the treated plant, allowing insects to crawl out of the tip to reach the foliage for feeding. Cups were covered with a reusable screened lid. Test plants were maintained in a growth room at about […] and about 20-40% relative humidity for 3 days, avoiding direct exposure to fluorescent light (24 hour photoperiod) to prevent trapping of heat inside the cup. Mortality was assessed 3 days after treatment, compared to untreated control plants.

[4] = tested on: tobacco budworm (Heliothis virescens); assay: Action on tobacco budworm (Heliothis virescens), 96-well microtiter plate diet test; settings: 120 h, egg and larval mortality after 5 days, read-out: mortality in comparison with untreated controls
Method: For evaluating control of tobacco budworm (Helliothis virescens) the test unit consisted of 96-well-microtiter plates containing an insect diet and 15-25 H. virescens eggs.
The compounds were formulated using a solution containing 75% v/v water and 25% v/v DMSO. Different concentrations of formulated compounds were sprayed onto the insect diet at 10 μl, using a custom built micro atomizer, at two replications.
After application, microtiter plates were incubated at about 28±1° C. and about 80±5% relative humidity for 5 days. Egg and larval mortality was then visually assessed.

[5] = tested on: boll weevil (Anthonomus grandis); assay: Action on boll weevil (Anthonomus grandis), 96-well microtiter plate diet test; settings: 120 h, egg and larval mortality after 5 days, read-out: mortality in comparison with untreated controls
Method: For evaluating control of boll weevil (Anthonomus grandis) the test unit consisted of 96-well-microtiter plates containing an insect diet and 5-10 A. grandis eggs.
The compounds were formulated using a solution containing 75% v/v water and 25% v/v DMSO. Different concentrations of formulated compounds were sprayed onto the insect diet at 5 μl, using a custom built micro atomizer, at two replications.
After application, microtiter plates were incubated at about 25±1° C. and about 75±5% relative humidity for 5 days. Egg and larval mortality was then visually assessed.

[6] = tested on: Southern Armyworm (Spodoptera eridania), 2nd Instar Larvae; assay: Action on southern armyworm (Spodoptera eridania), 2nd instar larvae, sprayed lima bean plants; settings: 96 h, 2nd instar larvae on lima bean, 4 days after treatment, read-out: mortality in comparison with untreated controls
Method: as §1, with “into 10” for “into 5”, “or 20” for “or 10”
Lima bean plants (variety Sieva) were grown 2 plants to a pot and selected for treatment at the 1st true leaf stage. Test solutions were sprayed onto the foliage by an automated electrostatic plant sprayer equipped with an atomizing spray nozzle. The plants were dried in the sprayer fume hood and then removed from the sprayer. Each pot was placed into perforated plastic bags with a zip closure. About 10 to 11 armyworm larvae were placed into the bag and the bags zipped closed. Test plants were maintained in a growth room at about 250C and about 20-40% relative humidity for 4 days, avoiding direct exposure to fluorescent light (24 hour photoperiod) to prevent trapping of heat inside the bags. Mortality and reduced feeding were assessed 4 days after treatment, compared to untreated control plants.

[7] = tested on: yellow fever mosquito (Aedes aegypti); assay: whole plant or invertebrate; settings: 48 h, larval mortality visually assessed after 2 days, read-out: mortality in comparison with untreated controls
Method: For evaluating control of yellow fever mosquito (Aedes aegypti) the test unit consisted of 96-well-microtiter plates containing 200 μl of tap water per well and 5-15 freshly hatched A. aegypti larvae.
The active compounds were formulated using a solution containing 75% (v/v) water and 25% (v/v) DMSO. Different concentrations of formulated compounds or mixtures were sprayed onto the insect diet at 2.5 μl, using a custom built micro atomizer, at two replications.
After application, microtiter plates were incubated at 28±1° C., 80±5% RH for 2 days. Larval mortality was then visually assessed.

CC(/C=N/NC(=S)Nc1ccccc1C(C)C)=C\c1ccc(N(C)c2ccc(OC(F)(F)F)cc2)nn1 [Compound C-26, 1-(2-isopropylphenyl)-3-[(E)-[(E)-2-methyl-3-[6-[N-methyl-4-(trifluoromethoxy)anilino]pyridazin-3-yl]prop-2-enylidene]amino]thiourea]
≥ 75%: mortality at 500 ppm [1] | mortality at 500 ppm [2] | mortality at 300 ppm [3] | mortality at 800 ppm [4] | mortality at 800 ppm [5] | mortality at 300 ppm [6]

CC(C=N/N=C1\SCC(=O)N1c1c(C)cccc1C)=Cc1cnc(Nc2ccc(OC(F)(F)F)cc2)nc1 [Compound C-4, (2Z)-3-(2,6-dimethylphenyl)-2-[(2-methyl-3-[2-[4-(trifluoromethoxy)anilino]pyrimidin-5-yl]prop-2-enylidene]hydrazono]thiazolidin-4-one]
≥ 75%: mortality at 500 ppm [2] | mortality at 800 ppm [7] | mortality at 800 ppm [4] | mortality at 800 ppm [5] | mortality at 300 ppm [6]

CC(/C=N/NC(=S)Nc1c(C)cccc1C)=C\c1cnc(Nc2ccc(OC(F)(F)F)cc2)nc1 [Compound C-2, 1-(2,6-dimethylphenyl)-3-[(E)-[(E)-2-methyl-3-[2-[4-(trifluoromethoxy)anilino]pyrimidin-5-yl]prop-2-enylidene]amino]thiourea]
≥ 75%: mortality at 500 ppm [2] | mortality at 800 ppm [7] | mortality at 800 ppm [4] | mortality at 800 ppm [5] | mortality at 300 ppm [6]

Cc1nc(N(C)c2ccc(OC(F)(F)F)cc2)ncc1CC(C)/C=N/NC(=S)Nc1ccccc1C(C)C (stereo not drawn) [Compound C-22, 1-(2-isopropylphenyl)-3-[(E)-[2-methyl-3-[4-methyl-2-[N-methyl-4-(trifluoromethoxy)anilino]pyrimidin-5-yl]propylidene]amino]thiourea]
≥ 75%: mortality at 300 ppm [3] | mortality at 800 ppm [4] | mortality at 800 ppm [5]

CC(/C=N/N=C1\SCC(=O)N1c1ccccc1C(C)C)=C\c1ccc(N(C)c2ccc(OC(F)(F)F)cc2)nn1 [Compound C-27, (2Z)-3-(2-isopropylphenyl)-2-[(E)-[(E)-2-methyl-3-[6-[N-methyl-4-(trifluoromethoxy)anilino]pyridazin-3-yl]prop-2-enylidene]hydrazono]thiazolidin-4-one]
≥ 75%: mortality at 500 ppm [1] | mortality at 500 ppm [2] | mortality at 800 ppm [7] | mortality at 800 ppm [4] | mortality at 800 ppm [5] | mortality at 300 ppm [6]

CC(/C=N/NC(=S)Nc1ccccc1C(C)C)=C\c1ccc(N(C)c2ccc(OC(F)(F)F)cc2)nc1 [Compound C-15, 1-(2-isopropylphenyl)-3-[(E)-[(E)-2-methyl-3-[6-[N-methyl-4-(trifluoromethoxy)anilino]-3-pyridyl]prop-2-enylidene]amino]thiourea]
≥ 75%: mortality at 500 ppm [1] | mortality at 500 ppm [2] | mortality at 300 ppm [3] | mortality at 800 ppm [4] | mortality at 800 ppm [5] | mortality at 300 ppm [6]

CC(C)c1ccccc1N1CC(=O)N(/N=C/C=C/c2cnc(N(C)c3ccc(OC(F)(F)F)cc3)nc2)C1=O [Compound C-14, 1-(2-isopropylphenyl)-3-[(E)-[(E)-3-[2-[N-methyl-4-(trifluoromethoxy)anilino]pyrimidin-5-yl]prop-2-enylidene]amino]imidazolidine-2,4-dione]
≥ 75%: mortality at 500 ppm [1] | mortality at 500 ppm [2] | mortality at 800 ppm [4] | mortality at 800 ppm [5]

CC(/C=N/N=C1\SCC(=O)N1c1ccccc1C(C)C)=C\c1cnc(N(C)c2ccc(OC(F)(F)F)cc2)c(N(C)C)c1 [Compound C-9, (2Z)-2-[(E)-[(E)-3-[5-(dimethylamino)-6-[N-methyl-4-(trifluoromethoxy)anilino]-3-pyridyl]-2-methyl-prop-2-enylidene]hydrazono]-3-(2-isopropylphenyl)thiazolidin-4-one]
≥ 75%: mortality at 500 ppm [1] | mortality at 500 ppm [2] | mortality at 800 ppm [7] | mortality at 800 ppm [4] | mortality at 800 ppm [5] | mortality at 300 ppm [6]

CC(/C=N/NC(=S)Nc1ccccc1C(C)C)=C\c1cnc(N(C)c2ccc(OC(F)(F)F)cc2)c(N(C)C)c1 [Compound C-8, 1-[(E)-[(E)-3-[5-(dimethylamino)-6-[N-methyl-4-(trifluoromethoxy)anilino]-3-pyridyl]-2-methyl-prop-2-enylidene]amino]-3-(2-isopropylphenyl)thiourea]
≥ 75%: mortality at 500 ppm [2] | mortality at 300 ppm [3] | mortality at 800 ppm [4] | mortality at 800 ppm [5] | mortality at 300 ppm [6]

CC(/C=N/NC(=S)Nc1ccccc1C(C)C)=C\c1cnc(Nc2ccc(OC(F)(F)F)cc2)nc1 [Compound C-1, 1-(2-isopropylphenyl)-3-[(E)-[(E)-2-methyl-3-[2-[4-(trifluoromethoxy)anilino]pyrimidin-5-yl]prop-2-enylidene]amino]thiourea]
≥ 75%: mortality at 500 ppm [1] | mortality at 500 ppm [2] | mortality at 800 ppm [7] | mortality at 800 ppm [4] | mortality at 800 ppm [5] | mortality at 300 ppm [6]

CC(C)c1ccccc1NC(=S)N/N=C/C(=O)Nc1cnc(N(C)c2ccc(OC(F)(F)F)cc2)nc1 [Compound C-13, (2E)-2-[(2-isopropylphenyl)carbamothioylhydrazono]-N-[2-[N-methyl-4-(trifluoromethoxy)anilino]pyrimidin-5-yl]acetamide]
≥ 75%: mortality at 500 ppm [2] | mortality at 800 ppm [4] | mortality at 300 ppm [6]

Cc1cc(N(C)c2ccc(OC(F)(F)F)cc2)nc(C)c1OC/C=N/N=C1\SCC(=O)N1c1ccccc1C(C)C [Compound C-31, (2Z)-2-[(E)-2-[[2,4-dimethyl-6-[N-methyl-4-(trifluoromethoxy)anilino]-3-pyridyl]oxy]ethylidenehydrazono]-3-(2-isopropylphenyl)thiazolidin-4-one]
≥ 75%: mortality at 500 ppm [2] | mortality at 800 ppm [7] | mortality at 800 ppm [4] | mortality at 800 ppm [5] | mortality at 300 ppm [6]

From patent US20200077658A1, “Pesticidal Compounds” (BASF SE, priority 2016, published 2020)
